The supplement of paper PMC8967900

Experiments:
Experiment in all cases: selective drug sensitivity score (sDSS, relative to normal bone marrow) (sDSS (score)); higher = more potent and effective on the cell line relative to normal bone marrow cells
Conditions in all cases: 72 h
RPMI-8402 = tested on: RPMI-8402
REH = tested on: REH
380 = tested on: 380
TMD5 = tested on: TMD5
COG-LL-355h = tested on: COG-LL-355h
JURKAT = tested on: JURKAT
ALL-SIL = tested on: ALL-SIL
PEER = tested on: PEER
MHH-CALL-3 = tested on: MHH-CALL-3
MHH-CALL-2 = tested on: MHH-CALL-2
MN-60 = tested on: MN-60
KARPAS-45 = tested on: KARPAS-45
COG-LL-319h = tested on: COG-LL-319h
KASUMI-10 = tested on: KASUMI-10
KASUMI-9 = tested on: KASUMI-9
NALM-6 = tested on: NALM-6
MHH-CALL-4 = tested on: MHH-CALL-4
PF-382 = tested on: PF-382
NALM-16 = tested on: NALM-16
NALL-1 = tested on: NALL-1
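Note: ALL cell lines in 384-well plates, five doses spanning 10,000-fold, each plate scaled between vehicle and 100 µmol/L benzalkonium chloride controls, sDSS an adapted area-under-curve metric.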

| SMILES | selective drug sensitivity score (RPMI-8402) | selective drug sensitivity score (REH) | selective drug sensitivity score 380 | selective drug sensitivity score (TMD5) | selective drug sensitivity score (COG-LL-355h) | selective drug sensitivity score (JURKAT) | selective drug sensitivity score (ALL-SIL) | selective drug sensitivity score (PEER) | selective drug sensitivity score (MHH-CALL-3) | selective drug sensitivity score (MHH-CALL-2) | selective drug sensitivity score (MN-60) | selective drug sensitivity score (KARPAS-45) | selective drug sensitivity score (COG-LL-319h) | selective drug sensitivity score (KASUMI-10) | selective drug sensitivity score (KASUMI-9) | selective drug sensitivity score (NALM-6) | selective drug sensitivity score (MHH-CALL-4) | selective drug sensitivity score (PF-382) | selective drug sensitivity score (NALM-16) | selective drug sensitivity score (NALL-1) |
| --- | --- | --- | --- | --- | --- | --- | --- | --- | --- | --- | --- | --- | --- | --- | --- | --- | --- | --- | --- | --- |
| CC1(C)CNc2cc(NC(=O)c3cccnc3NCc3ccncc3)ccc21 [Motesanib] (top concentration 10000 nM) | -0.22 | -0.22 | -0.22 | -0.22 | -0.22 | -0.22 | -0.22 | 0.38 | -0.22 | -0.22 | -0.22 | -0.22 | 0.08 | -0.22 | -0.22 | 1.28 | -0.22 | -0.22 | -0.22 | -0.22 |
| CCCN(CCC)C(=O)C1=Cc2ccc(-c3ccc(C(=O)N4CCCC4)cc3)cc2N=C(N)C1 [Motolimod] (top concentration 10000 nM) | -2.28 | -2.48 | -4.38 | -3.48 | -2.38 | -2.58 | -3.48 | -3.18 | -4.48 | -3.98 | -4.48 | -3.48 | -4.18 | -2.28 | 1.22 | -3.38 | -4.48 | -2.28 | -4.48 | -4.48 |
| Cc1cc(-c2ncc(CC(=O)Nc3ccc(-c4cnccn4)cn3)cc2C)ccn1 [NVP-LGK974] (top concentration 10000 nM) | 4.9 | 4 | 1 | 3.4 | 3.3 | 7.3 | 0 | 6.9 | 2 | 1.9 | 4.7 | 4.6 | -1.3 | 0.8 | 0.1 | 3.7 | 3.5 | 2.7 | 0.7 | 1.5 |
| CC1(C)NC(=O)N(c2ccc([N+](=O)[O-])c(C(F)(F)F)c2)C1=O [Nilutamide] (top concentration 10000 nM) | -0.18 | 0.22 | -0.48 | 3.42 | -0.48 | 1.32 | 0.82 | 0.32 | -0.48 | 7.92 | -0.48 | -0.48 | -0.48 | 0.22 | -0.28 | 1.82 | 2.02 | -0.08 | -0.48 | 7.02 |
| CNC(=O)c1ccc2cc([C@@]3(O)CCn4cncc43)ccc2c1 [Orteronel] (top concentration 10000 nM) | 0 | 0 | 1.4 | 0 | 0 | 0 | 0 | 0 | 0 | 0 | 0 | 0 | 4.9 | 0 | 0 | 0 | 0 | 0 | 0 | 0 |
| C=CCc1cccc(/C=N/NC(=O)CN2CCN(Cc3ccccc3)CC2)c1O [PAC-1] (top concentration 10000 nM) | 1.78 | 3.48 | 0.38 | 0.98 | 2.08 | 1.28 | 3.18 | 2.58 | -0.22 | 5.58 | 4.08 | 3.28 | 1.18 | 0.98 | 0.38 | 2.18 | 1.18 | 2.78 | 3.58 | -0.42 |
| O=C(Nc1cccnc1)N1CCC(Cc2cccc(Oc3ccc(C(F)(F)F)cn3)c2)CC1 [PF-3845] (top concentration 10000 nM) | 4.66 | 2.96 | -1.34 | -0.94 | -0.54 | 6.36 | -0.84 | 7.06 | -1.34 | -0.24 | 3.06 | 3.96 | -0.04 | -1.34 | -0.84 | 2.86 | 0.96 | 1.96 | 0.36 | -1.24 |
| COc1cc(Br)c(Nc2nc(-c3c(C)nc4ncccn34)cs2)c(Br)c1 [PTC-209] (top concentration 10000 nM) | 1.02 | 3.62 | -1.48 | -2.18 | -0.38 | 0.62 | 0.42 | -0.38 | -5.08 | 1.92 | 0.42 | 0.02 | 4.12 | 0.92 | 1.92 | 2.22 | -2.68 | -0.68 | -2.38 | -1.78 |
| C=CC(=O)N1CCC(Oc2cc3c(Nc4ccc(Cl)c(Cl)c4F)ncnc3cc2OC)CC1 [Poziotinib] (top concentration 1000 nM) | -0.22 | -0.22 | -0.22 | 1.28 | -0.22 | -0.22 | 3.48 | -0.22 | 3.08 | -0.22 | -0.22 | -0.22 | 3.98 | -0.22 | 0.98 | -0.22 | 0.68 | -0.22 | -0.22 | 3.28 |
| CC[C@H](C)C(=O)O[C@H]1C[C@H](O)C=C2C=C[C@H](C)[C@H](CC[C@@H](O)C[C@@H](O)CC(=O)O)[C@H]21 [Pravastatin] (top concentration 10000 nM) | -0.66 | -0.66 | 3.04 | -0.66 | -0.56 | -0.66 | -0.66 | -0.66 | 0.74 | -0.36 | -0.66 | -0.66 | 0.64 | -0.66 | -0.66 | -0.66 | -0.66 | -0.66 | -0.66 | -0.66 |
